According to patent US8158579B2, “Fusion protein of an exendin to modified transferrin” (BioRexis Pharmaceutical Corporation, priority 2006, dated 2012):
Several values for one entry are separate records, joined by “and”; a condition that tells them apart may be missing. Identical values can stand only once. Like-named read-outs stand apart in the source and are kept apart here.

Tests used:
[1] = cynomolgus monkey, in vivo, 1 mg/kg
mice = assay: body weight in mice after a single dose; format: in vivo; details: for average drop in body weight: twenty-four hours after administration
Description: Such a dose can also be administered once per two weeks or once per month.

[2] = mouse, in vivo, inhaled or intranasal
Method: The inhalation time in the chamber was chosen so that the animals would receive an exposure equivalent to the 0.3, 1 and 3 mg/kg dose administered subcutaneously. As a control, these doses were administered subcutaneously (SC) to compare in vivo activity to the inhaled route of administration.

[3] = target: T1, matrix metalloprotease I (MMP-1, collagenase) (Homo sapiens, UniProt P03956); format: in vitro ADME
T1 sequence (P03956 100-469): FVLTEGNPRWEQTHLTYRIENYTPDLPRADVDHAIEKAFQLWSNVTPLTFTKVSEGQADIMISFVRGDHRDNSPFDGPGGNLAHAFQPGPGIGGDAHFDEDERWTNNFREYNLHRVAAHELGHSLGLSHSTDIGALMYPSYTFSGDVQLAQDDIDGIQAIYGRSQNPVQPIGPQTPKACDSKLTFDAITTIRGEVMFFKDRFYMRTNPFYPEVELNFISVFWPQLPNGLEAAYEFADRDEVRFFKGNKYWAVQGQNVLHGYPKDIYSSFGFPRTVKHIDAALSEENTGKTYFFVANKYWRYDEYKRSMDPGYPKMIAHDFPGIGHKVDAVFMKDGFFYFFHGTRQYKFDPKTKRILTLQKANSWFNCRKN
Description: This difference in degradation occurs despite the close similarity in amino acid sequence in the active portion of the molecules.

[4] = effect of aerosolization on integrity and activity of the fusion protein; format: physicochemical
Description: (§1) Aerosols were generated with an Aerotech II compressed air jet nebulizer (CIS-US Inc., Bedford, Mass.) and directed through a 1.58 cm diameter stainless steel aerosol delivery line into a 24-port flow past rodent exposure system (IN-TOX, ABQ, NM). The exhaust flow rate out of the chamber was ˜11.5 L/min. The nebulizer pressure was maintained at ˜30 psi.

Diabetic (db/db) mice = assay: blood glucose in diabetic (db/db) mice after subcutaneous injection; format: in vivo
Sprague Dawley rats = assay: rat body weight, daily subcutaneous injections; format: in vivo
Description: The rats were weighed everyday (prior to dosing on dosing days). Animals had full access to food and water at all times.
By day five, the animals treated with 100 nmole/kg doses lost an average of 75 grams (17%) body weight compared to controls, and the weight loss is related to a drop in food and water intake. Because of the dramatic and acute weight loss observed, daily administration of the drug was stopped at day five. After the 5 day administration period, all animals gained weight at a similar rate.

rat GLP-1 receptor = target: T2, rat GLP-1 receptor (Rattus norvegicus, UniProt P32301); assay: cAMP potency assay in CHO cells transfected with the rat GLP-1 receptor (CHO-GLP-1R); format: cell-based
T2 construct: expressed in transfected cells; host or cells: CHO (CHO-GLP-1R)
T2 sequence (P32301 22-463): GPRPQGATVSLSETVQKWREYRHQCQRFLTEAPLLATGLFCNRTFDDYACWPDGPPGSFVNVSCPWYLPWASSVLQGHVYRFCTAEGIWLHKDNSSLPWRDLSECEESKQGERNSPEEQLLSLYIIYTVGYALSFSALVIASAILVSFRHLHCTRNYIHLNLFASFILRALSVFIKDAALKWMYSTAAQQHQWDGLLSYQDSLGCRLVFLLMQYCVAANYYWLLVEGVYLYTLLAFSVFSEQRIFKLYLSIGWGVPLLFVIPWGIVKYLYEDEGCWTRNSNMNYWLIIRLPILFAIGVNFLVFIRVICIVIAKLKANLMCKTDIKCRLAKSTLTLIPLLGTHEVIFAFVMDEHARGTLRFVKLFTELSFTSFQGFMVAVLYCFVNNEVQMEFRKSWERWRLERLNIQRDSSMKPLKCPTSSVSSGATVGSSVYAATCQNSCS
Method: 96-well tissue culture plates were seeded with CHO-GLP-1R cells and cultured overnight. The following day, the cells were rinsed with Krebs-Ringer buffer (KRB) and incubated in KRB containing the phosphodiesterase inhibitor 3-isobutyl-1-methylxanthine (IBMX, 2 mM) to inhibit intracellular enzymes that process cAMP. Serial dilutions of test compounds and controls were prepared in KRB/IBMX and triplicate wells of cells were inoculated with samples and controls. After incubation, individual sample lysates were then assayed to measure the increase in intracellular cAMP levels using a competition-based fluorescent immunoassay (CatchPoint® cAMP Fluorescent Assay Kit, Molecular Devices Corp., Sunnyvale, Calif.).

diabetic mice (db/db) = assay: blood glucose in db/db mice after inhalation of aerosolized fusion protein; format: in vivo; details: inhalation exposure equivalent to 0.3, 1 and 3 mg/kg
Description: as §1

human GLP-1 receptor = target: T3, human GLP-1 receptor (Homo sapiens, UniProt P43220); assay: cell-based cAMP assay in CHO cells expressing the human GLP-1 receptor (FIG. 4)
T3 construct: expressed in transfected cells; host or cells: CHO
T3 sequence (P43220 24-463): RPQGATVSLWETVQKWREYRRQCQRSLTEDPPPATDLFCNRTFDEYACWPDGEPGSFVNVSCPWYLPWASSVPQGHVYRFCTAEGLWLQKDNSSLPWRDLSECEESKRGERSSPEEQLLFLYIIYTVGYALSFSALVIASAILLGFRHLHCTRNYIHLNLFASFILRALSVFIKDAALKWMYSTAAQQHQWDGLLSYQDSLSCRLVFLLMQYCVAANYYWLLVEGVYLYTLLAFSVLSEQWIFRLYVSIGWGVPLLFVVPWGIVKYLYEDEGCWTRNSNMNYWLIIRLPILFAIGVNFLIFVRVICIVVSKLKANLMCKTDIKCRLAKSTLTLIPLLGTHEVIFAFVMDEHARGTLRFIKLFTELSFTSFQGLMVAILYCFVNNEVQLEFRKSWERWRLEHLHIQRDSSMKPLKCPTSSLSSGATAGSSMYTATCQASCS

Substance: exendin-4(1-39) (PEAPTD)2 (SEQ ID NO: 5) mTf fusion protein: exendin-4(1-39) (SEQ ID NO: 4) linked via linker (PEAPTD)2 to modified transferrin mTf (SEQ ID NO: 17); sequence SEQ ID NO: 23
- Vz ([1]; iv): 0.0659 ± 0.031 L/kg
- λ z ([1]; iv): 0.0313 ± 0.0137 h − 1
- F ([1]; sc): 49.0%
- λ z ([1]; sc): 0.0252 ± 0.0084 h − 1
- dose correlated with a reduction in animal body weight (mice; mice and rats): ≥ 10 nmol/kg
- average drop in body weight (mice; single dose 10 nmole/kg): 6%
- average drop in body weight (mice; single dose 100 nmole/kg): 14%
- bioavailability [2]: approximately 10%
- resistance to inactivation by MMP-1 [3]: resistant to inactivation by MMP-1
- effect of aerosolization on structure ([4]; 10 mg/mL in 10 mM histidine pH 7.4, 100 mM NaCl, nebulized, SDS-PAGE and SEC-HPLC): no detectable adverse effect on the structure
- biological activity of material recovered after aerosolization ([4]; condensed liquid from the aerosol): biologically active
- time the almost normalized glucose level persisted (Diabetic (db/db) mice; all treatment groups): 24 h
- dose that significantly reduced blood glucose (Diabetic (db/db) mice; by 3 hours after subcutaneous injection): ≤ 1.3 nmol/kg
- effect on blood glucose compared with equivalent doses of the GLP-1(7-37,A8G,K34A) (PEAPTD)2 mTf fusion protein (Diabetic (db/db) mice; equivalent doses): significantly greater and of a longer duration
- time at which glucose concentrations returned to pretreatment levels (Diabetic (db/db) mice; post-treatment, depending on the dose): 48 to 72 h
- reduction in blood glucose (Diabetic (db/db) mice; reduction seen in db/db mice): approximately 70%
- body weight loss (Sprague Dawley rats; 100 nmole/kg daily administration, rats): 17% and 16%
- average body weight loss compared to controls (Sprague Dawley rats; 100 nmole/kg daily, by day five): 75 grams
- body weight change (Sprague Dawley rats; 10 and 100 nmole/kg doses): lost weight after the first injection
- body weight versus control animals after end of dosing (Sprague Dawley rats; 20 days following the last administration): still weighed less than the control animals
- EC50 (rat GLP-1 receptor; cAMP accumulation in CHO-GLP-1R cells): 0.16 nM
- potency relative to the GLP-1(7-37,A8G,K34A) (PEAPTD)2 mTf fusion protein (rat GLP-1 receptor; in vitro activation of the GLP-1 receptor): four-eight fold more potent
- blood glucose levels after inhalation (diabetic mice (db/db)): significant drop
- EC50 (human GLP-1 receptor; cell-based cAMP assay, FIG. 4): 0.0313 nM
- potency relative to exendin-4 (fold less potent) (human GLP-1 receptor; in vitro, CHO cells expressing the human GLP-1 receptor): approximately 5 fold
